The target in one assay is T1, MAO-B (Homo sapiens, UniProt P27338).
T1 construct: gene MAOB
T1 sequence (P27338 2-520): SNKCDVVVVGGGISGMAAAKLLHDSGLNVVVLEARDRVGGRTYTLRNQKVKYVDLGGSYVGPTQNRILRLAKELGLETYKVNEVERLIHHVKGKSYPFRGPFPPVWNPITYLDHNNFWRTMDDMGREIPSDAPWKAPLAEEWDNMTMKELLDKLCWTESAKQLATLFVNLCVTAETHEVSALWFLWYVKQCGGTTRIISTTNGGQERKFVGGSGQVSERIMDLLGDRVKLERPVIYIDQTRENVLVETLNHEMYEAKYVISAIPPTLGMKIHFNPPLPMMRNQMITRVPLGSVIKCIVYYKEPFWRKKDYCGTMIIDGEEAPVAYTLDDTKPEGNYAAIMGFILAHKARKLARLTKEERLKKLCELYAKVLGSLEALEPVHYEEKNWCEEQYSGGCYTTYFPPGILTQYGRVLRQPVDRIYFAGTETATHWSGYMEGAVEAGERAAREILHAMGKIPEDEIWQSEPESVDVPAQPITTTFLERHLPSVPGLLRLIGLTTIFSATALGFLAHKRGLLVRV
As to the kind of experiment: MAO-Glo luminescence enzyme activity assay with purchased human MAO-B. It counts as biochemical.

Another assay addresses T2, MAO-A (Homo sapiens, UniProt P21397).
T2 construct: gene MAOA
T2 sequence (P21397 1-527): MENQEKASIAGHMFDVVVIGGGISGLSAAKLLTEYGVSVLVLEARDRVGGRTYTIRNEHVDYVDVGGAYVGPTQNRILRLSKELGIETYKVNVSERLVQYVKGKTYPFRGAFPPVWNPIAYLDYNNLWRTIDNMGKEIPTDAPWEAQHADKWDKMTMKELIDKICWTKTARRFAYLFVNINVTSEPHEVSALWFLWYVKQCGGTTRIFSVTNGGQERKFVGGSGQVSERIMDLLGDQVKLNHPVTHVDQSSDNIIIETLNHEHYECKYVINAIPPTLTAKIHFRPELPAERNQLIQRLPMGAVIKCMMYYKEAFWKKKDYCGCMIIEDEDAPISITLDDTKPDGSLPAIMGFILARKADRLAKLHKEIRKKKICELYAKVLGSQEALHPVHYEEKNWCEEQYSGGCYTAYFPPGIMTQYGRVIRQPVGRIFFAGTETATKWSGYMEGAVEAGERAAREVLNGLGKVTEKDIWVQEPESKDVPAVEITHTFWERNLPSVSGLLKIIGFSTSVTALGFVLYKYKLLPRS
As to the kind of experiment: MAO-Glo luminescence enzyme activity assay. It counts as biochemical.

Consider `Cn1c2ccccc2c2ccncc21` [9-methyl-β-carboline], for which the figures for the IC50 against MAO-B and on MAO-A were 15.5 µM and 1 µM, respectively.

The term IC50 denotes the concentration that inhibits the measured activity by half. Low values mean greater potency, high ones weaker potency.

For the origin of these results see publication PMC8592951, “9-Methyl-β-carboline inhibits monoamine oxidase activity and stimulates the expression of neurotrophic factors by astrocytes” (Journal of Neural Transmission, 2020).
